Source: patent US20240294545A1 (CSPC Zhongqi Pharmaceutical Technology (Shijiazhuang) Co., …, priority 2020, published 2024)
Marks after values point to notes of the source that are not given here.

Columns and labels:
[1] = system: Human glioblastoma cell line LN-18; assay: LN18 cell proliferation combined with radiotherapy (CTG assay); assay type: cell-based; settings: Homo sapiens, LN-18, light or radiation study; LN18 cells, 1 Gy irradiation 1 h after compound, 6 days, CTG;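 also: readout is CTG luminescence proliferation not KAP1 phosphorylation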
Description: 5 Test of the Inhibitory Activities of the Compounds of the Present Disclosure Combined with Radiotherapy on LN18 Cell Proliferation
• Cell: Human glioblastoma cell line LN-18
5.2 Experimental Procedures
• (1) Cell inoculation • 1) The cell culture fluid was preheated at 37° C. • 2) A complete culture medium of LN18 cells was prepared, at a ratio of DMEM medium:FBS=95:5 (V/V). • 3) Cells were digested with trypsin, collected to serve as a cell suspension, and counted, the cell suspension was then added into a 96-well plate at 1500 cells/well and 100 μL of cell fluid/well, and three parallel wells were set. • 4) After inoculated in the plate, the cells were cultured overnight under the condition of 37° C. and 5% CO2. • (2) Compound addition and incubation • 1) AZD1390 and tested compounds, respectively, were sequentially diluted 5 times with DMSO, starting from the concentration of 10 mM and yielding the concentrations of 10, 2, 0.4, 0.08, 0.016, 0.0032, 0.00064, 0.000128, and 0.0000256 mM in turn. The compound solutions at the above concentrations were diluted 5000 times with the complete culture medium. The final 2× concentrations were in order 2000, 400, 80, 16, 3.2, 0.64, 0.128, 0.0256, and 0.00512 nM. The vehicle control was 0.02% DMSO culture fluid. • 2) A complete culture medium containing 100 μL of the compound solution was added to each well, and the final concentrations of the compounds in the wells were in order 1000, 200, 40, 8, 1.6, 0.32, 0.064, 0.0128, and 0.00256 nM. The 0.01% DMSO culture fluid was contained in the vehicle control well. After incubated with compound for 1 h, the cells were irradiated at a dose of 1 Gy. • 3) After irradiation, the plate was put into an incubator and incubated under the condition of 37° C. and 5% CO2 for 6 days. Then detection was performed by adopting CTG assay (100 μL of liquid from each well was sucked out and discarded, and 50 μL of CTG reagent was added to each well, and incubated at room temperature for 30 min, and the luminescence intensity was detected). • (3) Data analysis • 1) The Luminescence signal (RLU) of each well was detected. • 2) Proliferation inhibitory activity was calculated according to the formula: % inhibitory activity=RLUtreatment/RLUAvg(Vehicle)*100. 5.3 the Inhibitory Activities of Compounds of the Present Disclosure Combined with Radiotherapy on LN18 Cell Proliferation

[2] = system: subcutaneous xenograft tumor of human non-small cell lung cancer cell line NCI-H441; assay: NCI-H441 subcutaneous xenograft, combined with irinotecan liposome injection; assay type: in vivo, NU/NU mice; settings: for D 17 TGI / D 17 TV (MEAN ± SD) / Tumor weight / Tumor weight inhibitory rate: compound 25 mg/kg intragastric + irinotecan liposome 2.5 mg/kg ip; for D 17 TGI / D 17 TV (MEAN ± SD): day 17; for Tumor weight / Tumor weight inhibitory rate: end of test d17
Description: 6 Efficacy Test of the Compounds of the Present Disclosure Combined with Irinotecan Liposome Injection on Inhibiting the Growth of Subcutaneous Xenograft Tumor of Human Non-Small Cell Lung Cancer Cell Line NCI-H441
6.1 Experimental Animals: NU/NU Mice, SPF, Female, 20 to 30 g.
Irinotecan liposome injection (HE072), 43 mg:10 mL, milky white liquid, batch No. B37191202, provided by Preparation Research Institute 2 from CSPC Zhongqi Pharmaceutical Technology (Shijiazhuang) Co., Ltd., diluted to an appropriate concentration with 5% glucose injection while testing.
NCI-H441 cells, provided by Nanjing Kebai Biotechnology Co., Ltd.; 1640 culture medium (gibco Company):fetal bovine serum (Lanzhou Bailing)=90%:10%, 37° C., 5% CO2.
NU/NU nude mice were subcutaneously inoculated with NCI-H441 human non-small cell lung cancer cells. When the mean tumor volume reached 170 to 172 mm^3 (15 days after inoculation), the animals were evenly divided into groups according to the tumor volume (d0), with 6 mice in each group. 2.5 mg/kg of HE072 was administered intraperitoneally once a week for 2 times. Vehicle control, 25 mg/kg of A-193, 25 mg/kg of A-182, and 25 mg/kg of AZD1390 were administered intragastrically once a day, from Monday to Thursday every week except Friday to Sunday, for 2 weeks (8 times). The tumor volume was measured twice a week, the body weight of mouse was weighed every day, and the data were recorded. The tumor volume (TV) was calculated according to the formula: TV=½×a×b2, wherein a and b represent the long and short diameters of tumor, respectively. Tumor growth inhibitory rate TGI (%)=[1−(Ti−T0)/(Vi−V0)]×100, wherein Ti represents the mean tumor volume of a given treatment group on a certain day; TO represents the mean tumor volume of this treatment group at the beginning of administration; Vi represents the mean tumor volume of the vehicle control group on a certain day (the same day as that in Ti); V0 represents the mean tumor volume of the vehicle control group at the beginning of administration. At the end of the test (d17), the animals were sacrificed, the tumors were stripped and weighed, and the tumor weight inhibitory rates were calculated.

Compound | IC50 [1] [nM] | D 17 TGI [2] [%] | D 17 TV (MEAN ± SD) [2] | Tumor weight [2] [g] | Tumor weight inhibitory rate [2] [%] | inhibitory effect on tumor volume and tumor weight, in words ([2]; combined with irinotecan liposome injection, compared with AZD1390)
CC(C)n1c(=O)n(C)c2cnc3cc(F)c(-c4ccc(OCCCN5CCCCC5)nc4)cc3c21 [AZD1390, reference compound] | 2.79 | 60.3 | 342.8 ± 110.6*** mm^3 | 0.32 ± 0.09 | 45.3 | 
Cn1c(=O)n2c3c4c(c(-c5ccc(OCCCN6CCCCC6)nc5)c(F)cc4ncc31)NCC2(C)C [Example A-193, 6-fluoro-2,10,10-trimethyl-7-(6-(3-(piperidin-1-yl)propoxy)pyridin-3-yl)-2,8,9,10-tetrahydro-1H-2,4,8,10a-tetraazanaphtho[2,1,8-cde]azulen-1(2H)-one] | 10.1 | 87.5 | 225.9 ± 69.4***^### mm^3 | 0.24 ± 0.06 | 60.2 | higher than those of AZD1390
